Laboratory results published in PubChem BioAssay AID180 (DTP/NCI, 2004).
Values joined by “and” are separate entries in the source; they are usually repeats but may differ in a detail not shown here. Identical values can stand only once.

Test system: BDF1 mice, Adenocarcinoma 755 s.c., tumor weight T/C
Assay: NCI In Vivo Anticancer Drug Screen. Data for tumor model Adenocarcinoma 755 (subcutaneous) in B6D2F1 (BDF1) mice
Conditions: endpoint: mean tumor weight, schedule: Q01DX011 (ip), higher = larger tumour
How it was run: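 Values express treated (T) relative to vehicle-dosed control (C) animals, based on survival or tumour size measured after compound treatment of mice bearing a transplanted tumour.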

Cc1cc2nc3c(=O)[nH]c(=O)nc-3n(CC(O)C(O)C(O)C(O)CO)c2cc1C (stereo unspecified)
T/C (dose: 12.0 mg/kg/injection, vehicle: carboxymethylcellulose (CMC)): 96 % of control and 111 % of control | T/C (dose: 14.13 mg/kg/injection, vehicle: carboxymethylcellulose (CMC)): 91 % of control | T/C (dose: 19.0 mg/kg/injection, vehicle: carboxymethylcellulose (CMC)): 90 % of control and 76 % of control | T/C (dose: 26.25 mg/kg/injection, vehicle: carboxymethylcellulose (CMC)): 79 % of control | T/C (dose: 28.25 mg/kg/injection, vehicle: carboxymethylcellulose (CMC)): 122 % of control | T/C (dose: 52.5 mg/kg/injection, vehicle: carboxymethylcellulose (CMC)): 95 % of control | T/C (dose: 56.5 mg/kg/injection, vehicle: carboxymethylcellulose (CMC)): 60 % of control | T/C (dose: 62.5 mg/kg/injection, vehicle: methylcellulose (MC)): 94 % of control | T/C (dose: 105.0 mg/kg/injection, vehicle: carboxymethylcellulose (CMC)): 116 % of control | T/C (dose: 113.0 mg/kg/injection, vehicle: carboxymethylcellulose (CMC)): 62 % of control | T/C (dose: 125.0 mg/kg/injection, vehicle: methylcellulose (MC)): 27 % of control | T/C (dose: 210.0 mg/kg/injection, vehicle: carboxymethylcellulose (CMC)): 101 % of control

Cc1ccccc1N=Nc1ccc(N=Nc2ccc(O)cc2)c(C)c1
T/C (dose: 1.87 mg/kg/injection, vehicle: methylcellulose (MC)): 74 % of control | T/C (dose: 1.87 mg/kg/injection, vehicle: saline): 77 % of control | T/C (dose: 3.25 mg/kg/injection, vehicle: methylcellulose (MC)): 89 % of control | T/C (dose: 3.25 mg/kg/injection, vehicle: saline): 101 % of control | T/C (dose: 7.5 mg/kg/injection, vehicle: methylcellulose (MC)): 101 % of control | T/C (dose: 7.5 mg/kg/injection, vehicle: saline): 68 % of control | T/C (dose: 15.0 mg/kg/injection, vehicle: saline): 88 % of control

CC(CNC(=O)CCBr)NC(=O)CCBr (stereo unspecified)
T/C (dose: 37.5 mg/kg/injection, vehicle: carboxymethylcellulose (CMC)): 79 % of control and 81 % of control | T/C (dose: 75.0 mg/kg/injection, vehicle: carboxymethylcellulose (CMC)): 26 % of control and 36 % of control | T/C (dose: 150.0 mg/kg/injection, vehicle: carboxymethylcellulose (CMC)): 10 % of control and 19 % of control

CCCCCCCCCCCC(=O)N(CC)CC
T/C (dose: 15.6 mg/kg/injection, vehicle: other): 92 % of control | T/C (dose: 31.2 mg/kg/injection, vehicle: other): 82 % of control | T/C (dose: 62.5 mg/kg/injection, vehicle: other): 84 % of control

Cn1c(=O)c2c(n(C)c1=O)[n+]([O-])c([N+]1([O-])CCOCC1)n2C
T/C (dose: 30.0 mg/kg/injection, vehicle: methylcellulose (MC)): 91 % of control | T/C (dose: 60.0 mg/kg/injection, vehicle: methylcellulose (MC)): 100 % of control | T/C (dose: 120.0 mg/kg/injection, vehicle: methylcellulose (MC)): 95 % of control | T/C (dose: 240.0 mg/kg/injection, vehicle: methylcellulose (MC)): 95 % of control

CCOC(=O)CCCc1ccc(N=NN(C)CC(C)C)cc1
T/C (dose: 125.0 mg/kg/injection, vehicle: carboxymethylcellulose (CMC)): 47 % of control | T/C (dose: 250.0 mg/kg/injection, vehicle: carboxymethylcellulose (CMC)): 28 % of control

O=C(Nc1ccc(C2=NCCCN2)cc1)c1ccc(C(=O)Nc2ccc(C3=NCCCN3)cc2)cc1
T/C (dose: 0.4 mg/kg/injection, vehicle: water): 103 % of control | T/C (dose: 0.8 mg/kg/injection, vehicle: water): 117 % of control | T/C (dose: 1.6 mg/kg/injection, vehicle: water): 94 % of control | T/C (dose: 3.2 mg/kg/injection, vehicle: water): 97 % of control

O=C(O)CCC(=O)NO
T/C (dose: 50.0 mg/kg/injection, vehicle: carboxymethylcellulose (CMC)): 96 % of control | T/C (dose: 100.0 mg/kg/injection, vehicle: carboxymethylcellulose (CMC)): 98 % of control | T/C (dose: 200.0 mg/kg/injection, vehicle: carboxymethylcellulose (CMC)): 84 % of control

FC(F)(F)c1nc(Cl)nc2c1ncn2Cc1ccccc1
T/C (dose: 30.0 mg/kg/injection, vehicle: carboxymethylcellulose (CMC)): 56 % of control | T/C (dose: 60.0 mg/kg/injection, vehicle: carboxymethylcellulose (CMC)): 97 % of control | T/C (dose: 120.0 mg/kg/injection, vehicle: carboxymethylcellulose (CMC)): 97 % of control

Cn1c(Cl)nc2nc(Cl)nc(Cl)c21
T/C (dose: 7.5 mg/kg/injection, vehicle: carboxymethylcellulose (CMC)): 110 % of control

Cn1c(=O)c2[nH]c(/N=N/N3CCCCC3)nc2n(C)c1=O
T/C (dose: 25.0 mg/kg/injection, vehicle: methylcellulose (MC)): 61 % of control | T/C (dose: 75.0 mg/kg/injection, vehicle: methylcellulose (MC)): 69 % of control and 70 % of control

C=C(C)CSc1ncnc2nc[nH]c12
T/C (dose: 1.5 mg/kg/injection, vehicle: other): 82 % of control | T/C (dose: 3.0 mg/kg/injection, vehicle: other): 78 % of control | T/C (dose: 7.0 mg/kg/injection, vehicle: other): 22 % of control | T/C (dose: 15.0 mg/kg/injection, vehicle: other): 5 % of control | T/C (dose: 30.0 mg/kg/injection, vehicle: other): 5 % of control and 14 % of control | T/C (dose: 60.0 mg/kg/injection, vehicle: other): 2 % of control | T/C (dose: 120.0 mg/kg/injection, vehicle: other): 2 % of control
